Experimental data: PMC5218480 (PLoS ONE, 2017)

System: MV-4-11 cells
Experiment: Gene expression microarray analysis (Affymetrix PrimeView) and GSEA
Assay type: cell-based, human
Design: RFU PODN (11730768_x_at) / Fold change /veh PODN (11730768_x_at) / RFU LINC00158 (11744669_a_at) / Fold change /veh LINC00158 (11744669_a_at) / RFU DUSP10 (11751237_a_at) / Fold change /veh DUSP10 (11751237_a_at) / RFU ID3 (11757404_x_at) / Fold change /veh ID3 (11757404_x_at) / RFU PLEKHG5 (11737974_s_at) / Fold change /veh PLEKHG5 (11737974_s_at) / RFU LRRC4B (11730491_at) / Fold change /veh LRRC4B (11730491_at) / RFU GIMAP4 (11747438_a_at) / Fold change /veh GIMAP4 (11747438_a_at) / RFU KRT8 (11758183_x_at) / Fold change /veh KRT8 (11758183_x_at) / RFU CNN1 (11734310_a_at) / Fold change /veh CNN1 (11734310_a_at) / RFU VPS37D (11726825_at) / Fold change /veh VPS37D (11726825_at) / RFU C10orf10 (11716522_x_at) / Fold change /veh C10orf10 (11716522_x_at) / RFU KIR2DL2 /// KIR2DL4 /// KIR2DL5A /// KIR2DL5B /// KIR2DS1 /// KIR2DS2 /// KIR2DS3 /// KIR2DS4 /// KIR3DL3 /// KIR3DL3 /// KIR3DS1 (11738374_at) / Fold change /veh KIR2DL2 /// KIR2DL4 /// KIR2DL5A /// KIR2DL5B /// KIR2DS1 /// KIR2DS2 /// KIR2DS3 /// KIR2DS4 /// KIR3DL3 /// KIR3DL3 /// KIR3DS1 (11738374_at) / RFU C1QL1 (11718748_at) / Fold change /veh C1QL1 (11718748_at) / RFU TMPRSS4 (11747572_a_at) / Fold change /veh TMPRSS4 (11747572_a_at) / RFU HAMP (11756126_x_at) / Fold change /veh HAMP (11756126_x_at) / RFU RNFT2 (11725882_a_at) / Fold change /veh RNFT2 (11725882_a_at) / RFU NR4A2 (11747474_a_at) / Fold change /veh NR4A2 (11747474_a_at) / RFU ABCC12 (11746883_a_at) / Fold change /veh ABCC12 (11746883_a_at) / RFU TMEM136 (11760407_x_at) / Fold change /veh TMEM136 (11760407_x_at) / RFU CLDN22 /// WWC2 (11732394_at) / Fold change /veh CLDN22 /// WWC2 (11732394_at) / RFU HLA-DPB1 (11760878_x_at) / Fold change /veh HLA-DPB1 (11760878_x_at) / RFU SPINT1 (11716480_a_at) / Fold change /veh SPINT1 (11716480_a_at) / RFU GAP43 (11754022_s_at) / Fold change /veh GAP43 (11754022_s_at) / RFU A4GNT (11735810_at) / Fold change /veh A4GNT (11735810_at) / RFU PRB3 (11715151_x_at) / Fold change /veh PRB3 (11715151_x_at) / RFU TUBB4B (11761932_at) / Fold change /veh TUBB4B (11761932_at) / RFU CAPN14 (11732068_a_at) / Fold change /veh CAPN14 (11732068_a_at) / RFU TMCC2 (11721928_a_at) / Fold change /veh TMCC2 (11721928_a_at) / RFU IRGQ (11745062_a_at) / Fold change /veh IRGQ (11745062_a_at) / RFU FAM174B (11720279_a_at) / Fold change /veh FAM174B (11720279_a_at) / RFU TMPRSS4 (11748680_a_at) / Fold change /veh TMPRSS4 (11748680_a_at) / RFU FAM212B (11763350_a_at) / Fold change /veh FAM212B (11763350_a_at) / RFU PLEKHG5 (11743358_a_at) / Fold change /veh PLEKHG5 (11743358_a_at) / RFU ZSCAN30 (11745921_a_at) / Fold change /veh ZSCAN30 (11745921_a_at) / RFU CMKLR1 (11741424_a_at) / Fold change /veh CMKLR1 (11741424_a_at) / RFU LOC101060620 /// MAPK8IP1 (11723275_at) / Fold change /veh LOC101060620 /// MAPK8IP1 (11723275_at) / RFU SPTSSB (11747773_x_at) / Fold change /veh SPTSSB (11747773_x_at) / RFU PRSS12 (11739890_at) / Fold change /veh PRSS12 (11739890_at) / RFU BIN1 (11741810_x_at) / Fold change /veh BIN1 (11741810_x_at) / RFU WNT11 (11732464_a_at) / Fold change /veh WNT11 (11732464_a_at) / RFU C10orf10 (11716521_a_at) / Fold change /veh C10orf10 (11716521_a_at) / RFU C5orf56 (11738089_at) / Fold change /veh C5orf56 (11738089_at) / RFU CYB561 (11721691_x_at) / Fold change /veh CYB561 (11721691_x_at) / RFU ANKRD19P (11752326_a_at) / Fold change /veh ANKRD19P (11752326_a_at) / RFU OR2T12 /// OR2T33 /// OR2T8 (11738714_s_at) / Fold change /veh OR2T12 /// OR2T33 /// OR2T8 (11738714_s_at) / RFU VCAN (11748164_a_at) / Fold change /veh VCAN (11748164_a_at) / RFU JSRP1 (11732532_at) / Fold change /veh JSRP1 (11732532_at) / RFU KRTAP10-11 (11738290_x_at) / Fold change /veh KRTAP10-11 (11738290_x_at) / RFU MYO3A (11730013_a_at) / Fold change /veh MYO3A (11730013_a_at) / RFU EBF3 (11725865_a_at) / Fold change /veh EBF3 (11725865_a_at) / RFU CAMK2N1 (11719241_x_at) / Fold change /veh CAMK2N1 (11719241_x_at) / RFU C5orf56 (11738088_a_at) / Fold change /veh C5orf56 (11738088_a_at) / RFU OLFML3 (11715873_a_at) / Fold change /veh OLFML3 (11715873_a_at) / RFU LOC100653217 /// NTM (11731650_a_at) / Fold change /veh LOC100653217 /// NTM (11731650_a_at) / RFU MAPK11 (11762145_a_at) / Fold change /veh MAPK11 (11762145_a_at) / RFU FIZ1 (11724087_x_at) / Fold change /veh FIZ1 (11724087_x_at) / RFU OASL (11726364_x_at) / Fold change /veh OASL (11726364_x_at) / RFU SOX15 (11748057_x_at) / Fold change /veh SOX15 (11748057_x_at) / RFU CD79A (11719716_a_at) / Fold change /veh CD79A (11719716_a_at) / RFU HIST1H1D (11736915_at) / Fold change /veh HIST1H1D (11736915_at) / RFU CASKIN2 (11723855_a_at) / Fold change /veh CASKIN2 (11723855_a_at) / RFU LOC730098 (11760151_x_at) / Fold change /veh LOC730098 (11760151_x_at) / RFU OR4N2 (11742367_at) / Fold change /veh OR4N2 (11742367_at) / RFU PRRT2 (11749266_a_at) / Fold change /veh PRRT2 (11749266_a_at) / RFU SNX32 (11753110_a_at) / Fold change /veh SNX32 (11753110_a_at) / RFU CDHR5 (11726645_a_at) / Fold change /veh CDHR5 (11726645_a_at) / RFU RCAN1 (11760418_a_at) / Fold change /veh RCAN1 (11760418_a_at) / RFU FAM167A (11723789_a_at) / Fold change /veh FAM167A (11723789_a_at) / RFU FAM26E (11764081_at) / Fold change /veh FAM26E (11764081_at) / RFU ISYNA1 (11749810_s_at) / Fold change /veh ISYNA1 (11749810_s_at) / RFU ACY1 (11761880_at) / Fold change /veh ACY1 (11761880_at) / RFU 11764098_at / Fold change /veh 11764098_at / RFU SAMD14 (11745864_x_at) / Fold change /veh SAMD14 (11745864_x_at) / RFU NPB (11741838_a_at) / Fold change /veh NPB (11741838_a_at) / RFU TMPRSS6 (11731388_a_at) / Fold change /veh TMPRSS6 (11731388_a_at) / RFU KRTAP10-2 (11738614_at) / Fold change /veh KRTAP10-2 (11738614_at) / RFU ARHGAP8 /// PRR5-ARHGAP8 (11727945_x_at) / Fold change /veh ARHGAP8 /// PRR5-ARHGAP8 (11727945_x_at) / RFU KRTAP5-7 /// NADSYN1 (11734609_at) / Fold change /veh KRTAP5-7 /// NADSYN1 (11734609_at) / RFU RASL12 (11751679_a_at) / Fold change /veh RASL12 (11751679_a_at) / RFU CDKN2B (11736163_a_at) / Fold change /veh CDKN2B (11736163_a_at) / RFU PRF1 (11729649_at) / Fold change /veh PRF1 (11729649_at) / RFU, ZNF638 /// ZNF638-IT1 / Fold change vs veh, ZNF638 /// ZNF638-IT1 / RFU, PANK3 / Fold change vs veh, PANK3 / RFU, SH3YL1 / Fold change vs veh, SH3YL1 / RFU, ZEB2 / Fold change vs veh, ZEB2 / RFU, NRIP1 / Fold change vs veh, NRIP1 / RFU, PTTG1IP / Fold change vs veh, PTTG1IP / RFU, CAPN2 / Fold change vs veh, CAPN2 / RFU, MED14 / Fold change vs veh, MED14 / RFU, SNORA58 / Fold change vs veh, SNORA58 / RFU, C1orf63 / Fold change vs veh, C1orf63 / RFU, LRRFIP1 / Fold change vs veh, LRRFIP1 / RFU, NDUFAF7 / Fold change vs veh, NDUFAF7 / RFU, SLC12A2 / Fold change vs veh, SLC12A2 / RFU, IBTK / Fold change vs veh, IBTK / RFU, ESF1 / Fold change vs veh, ESF1 / Fold change vs veh, TMEM50B / RFU, TAOK1 / Fold change vs veh, TAOK1 / RFU, ACBD3 / Fold change vs veh, ACBD3 / RFU, TMA16 / Fold change vs veh, TMA16 / RFU, RWDD3 / Fold change vs veh, RWDD3 / RFU, BCAT1 / Fold change vs veh, BCAT1 / RFU, EDEM3 / Fold change vs veh, EDEM3 / RFU, TMEM33 / Fold change vs veh, TMEM33 / RFU, WDR75 / Fold change vs veh, WDR75 / RFU, AHCTF1 / Fold change vs veh, AHCTF1 / RFU, TFRC / Fold change vs veh, TFRC / RFU, ZDHHC17 / Fold change vs veh, ZDHHC17 / RFU, NOM1 / Fold change vs veh, NOM1 / RFU, ARL8B / Fold change vs veh, ARL8B / RFU, ZBTB11 / Fold change vs veh, ZBTB11 / RFU, TAMM41 / Fold change vs veh, TAMM41 / RFU, KIAA1704 /// LOC100996395 / Fold change vs veh, KIAA1704 /// LOC100996395 / RFU, ING1 / Fold change vs veh, ING1 / RFU, TRMT61B / Fold change vs veh, TRMT61B / RFU, FUBP3 / Fold change vs veh, FUBP3 / RFU, TP53 / Fold change vs veh, TP53 / RFU, TNKS2 / Fold change vs veh, TNKS2 / RFU, ZFP14 / Fold change vs veh, ZFP14 / RFU, ACTR2 / Fold change vs veh, ACTR2 / RFU, PPP3R1 / Fold change vs veh, PPP3R1 / RFU, PIK3R1 / Fold change vs veh, PIK3R1 / RFU, HNRNPA1 / Fold change vs veh, HNRNPA1 / RFU, RNF170 / Fold change vs veh, RNF170 / RFU, ZNF28 / Fold change vs veh, ZNF28 / RFU, RNGTT / Fold change vs veh, RNGTT / RFU, OGT / Fold change vs veh, OGT / RFU, BRD1 / Fold change vs veh, BRD1 / RFU, MARS / Fold change vs veh, MARS / RFU, ZNF655 / Fold change vs veh, ZNF655 / RFU, FAHD1 / Fold change vs veh, FAHD1 / RFU, BDP1 / Fold change vs veh, BDP1 / RFU, LRRCC1 / Fold change vs veh, LRRCC1 / RFU, ARID1A / Fold change vs veh, ARID1A / RFU, ZNF146 / Fold change vs veh, ZNF146 / RFU, ZNF330 / Fold change vs veh, ZNF330 / RFU, GPN3 / Fold change vs veh, GPN3 / RFU, C9orf123 / Fold change vs veh, C9orf123 / RFU, N4BP2L2 / Fold change vs veh, N4BP2L2 / RFU, ARFIP1 / Fold change vs veh, ARFIP1 / RFU, FAM179B / Fold change vs veh, FAM179B / RFU, BCL10 / Fold change vs veh, BCL10 / RFU, UHRF1BP1L / Fold change vs veh, UHRF1BP1L / RFU, BET1 / Fold change vs veh, BET1 / RFU, CNOT2 / Fold change vs veh, CNOT2 / RFU, ZNF268 / Fold change vs veh, ZNF268 / Fold change vs veh, ZNF507 / RFU, DGCR2 / Fold change vs veh, DGCR2 / RFU, WDSUB1 / Fold change vs veh, WDSUB1 / Fold change vs veh, HSP90B1 /// MIR3652 / RFU, ADSS / Fold change vs veh, ADSS / RFU, GK / Fold change vs veh, GK / RFU, ZNF148 / Fold change vs veh, ZNF148 / RFU, TAF9 / Fold change vs veh, TAF9 / RFU, SLC1A5 / Fold change vs veh, SLC1A5 / RFU, SLMO2 / Fold change vs veh, SLMO2 / RFU, ABCC4 / Fold change vs veh, ABCC4 / RFU, LOC101060439 /// RAP1B / Fold change vs veh, LOC101060439 /// RAP1B / RFU, RFX7 / Fold change vs veh, RFX7 / RFU, GTPBP10 / Fold change vs veh, GTPBP10 / RFU, CNEP1R1 / Fold change vs veh, CNEP1R1 / RFU, BIVM-ERCC5 /// ERCC5 / Fold change vs veh, BIVM-ERCC5 /// ERCC5 / RFU, ILF3 / Fold change vs veh, ILF3 / RFU 11762660_at / Fold change /veh 11762660_at / RFU VCAN (11757783_s_at) / Fold change /veh VCAN (11757783_s_at) / RFU DDX43 (11728927_at) / Fold change /veh DDX43 (11728927_at) / RFU KRT8 (11758188_x_at) / Fold change /veh KRT8 (11758188_x_at) / RFU NKD1 (11759106_at) / Fold change /veh NKD1 (11759106_at) / RFU SRD5A1 (11742802_a_at) / Fold change /veh SRD5A1 (11742802_a_at) / RFU TPSAB1 /// TPSB2 (11721975_s_at) / Fold change /veh TPSAB1 /// TPSB2 (11721975_s_at) / RFU GSTM3 (11746129_a_at) / Fold change /veh GSTM3 (11746129_a_at) / RFU IL23R (11737362_x_at) / Fold change /veh IL23R (11737362_x_at) / RFU TMEM51 (11727254_a_at) / Fold change /veh TMEM51 (11727254_a_at) / RFU PIWIL2 (11732686_x_at) / Fold change /veh PIWIL2 (11732686_x_at) / RFU ORM1 (11744905_x_at) / Fold change /veh ORM1 (11744905_x_at) / RFU CCDC152 (11743942_at) / Fold change /veh CCDC152 (11743942_at) / RFU ECM1 (11717891_a_at) / Fold change /veh ECM1 (11717891_a_at) / RFU IL23R (11748794_a_at) / Fold change /veh IL23R (11748794_a_at) / RFU TNFAIP8L3 (11732012_x_at) / Fold change /veh TNFAIP8L3 (11732012_x_at) / RFU MBOAT4 (11741988_at) / Fold change /veh MBOAT4 (11741988_at) / RFU 11764193_at / Fold change /veh 11764193_at / RFU TMEM53 (11763286_at) / Fold change /veh TMEM53 (11763286_at) / RFU MAGEB2 (11727129_at) / Fold change /veh MAGEB2 (11727129_at) / RFU TMEM200A (11744735_a_at) / Fold change /veh TMEM200A (11744735_a_at) / RFU CCDC152 (11751479_a_at) / Fold change /veh CCDC152 (11751479_a_at) / RFU FAM211A (11726209_a_at) / Fold change /veh FAM211A (11726209_a_at) / RFU RGS16 (11746705_a_at) / Fold change /veh RGS16 (11746705_a_at) / RFU VCAN (11755009_s_at) / Fold change /veh VCAN (11755009_s_at) / RFU RHOB (11743442_s_at) / Fold change /veh RHOB (11743442_s_at) / RFU RGS16 (11720943_a_at) / Fold change /veh RGS16 (11720943_a_at) / RFU RGS16 (11720944_at) / Fold change /veh RGS16 (11720944_at) / RFU, VPS4B / Fold change vs veh, VPS4B / RFU, CREB1 / Fold change vs veh, CREB1 / RFU, DNAJC13 / Fold change vs veh, DNAJC13 / RFU, GNAQ / Fold change vs veh, GNAQ / RFU, CDK5R1 / Fold change vs veh, CDK5R1 / RFU, ZRANB3 / Fold change vs veh, ZRANB3 / RFU, CUL4A / Fold change vs veh, CUL4A / RFU, CCNY / Fold change vs veh, CCNY / RFU, UFL1 / Fold change vs veh, UFL1 / RFU, COG3 / Fold change vs veh, COG3 / RFU, DIAPH2 / Fold change vs veh, DIAPH2 / RFU, SKA2 / Fold change vs veh, SKA2 / RFU, AFF3 / Fold change vs veh, AFF3 / RFU, LMF1 / Fold change vs veh, LMF1 / RFU, IPO11 / Fold change vs veh, IPO11 / RFU, DFFB / Fold change vs veh, DFFB / RFU, FOXP1 / Fold change vs veh, FOXP1 / RFU, CARD8 / Fold change vs veh, CARD8 / RFU, STRN3 / Fold change vs veh, STRN3 / RFU, ADK / Fold change vs veh, ADK / RFU, RASSF2 / Fold change vs veh, RASSF2 / RFU, WIPF1 / Fold change vs veh, WIPF1 / RFU, LARP1B / Fold change vs veh, LARP1B / RFU, RASA1 / Fold change vs veh, RASA1 / RFU, RB1 / Fold change vs veh, RB1 / RFU, PPFIA1 / Fold change vs veh, PPFIA1 / RFU, MAT2A / Fold change vs veh, MAT2A / RFU, CCT5 / Fold change vs veh, CCT5 / RFU, WDR92 / Fold change vs veh, WDR92 / RFU, CUX1 / Fold change vs veh, CUX1 / RFU, TTC7A / Fold change vs veh, TTC7A / RFU, TMEM135 / Fold change vs veh, TMEM135 / RFU, DEPTOR / Fold change vs veh, DEPTOR / RFU, CPM / Fold change vs veh, CPM / RFU, DNAJB6 / Fold change vs veh, DNAJB6 / RFU, CACNA2D3 / Fold change vs veh, CACNA2D3 / RFU, DTX4 / Fold change vs veh, DTX4 / RFU, TFCP2 / Fold change vs veh, TFCP2 / RFU, GMCL1 /// GMCL1P1 / Fold change vs veh, GMCL1 /// GMCL1P1 / RFU, AEBP2 / Fold change vs veh, AEBP2 / RFU, SNHG1 /// SNORD22 /// SNORD25 /// SNORD26 /// SNORD27 /// SNORD28 /// SNORD29 /// SNORD31 / Fold change vs veh, SNHG1 /// SNORD22 /// SNORD25 /// SNORD26 /// SNORD27 /// SNORD28 /// SNORD29 /// SNORD31 / Fold change (Aza/veh), C12orf56 (ProbeSet 11735607_a_at) / Fold change (ACY-1035/veh), C12orf56 (ProbeSet 11735607_a_at) / Fold change (Aza/veh), FGFR1OP (ProbeSet 11751329_s_at) / Fold change (ACY-1035/veh), FGFR1OP (ProbeSet 11751329_s_at) / Fold change (Aza/veh), VPS36 (ProbeSet 11739960_a_at) / Fold change (ACY-1035/veh), VPS36 (ProbeSet 11739960_a_at) / RFU SYPL1 (11715823_x_at) / Fold change /veh SYPL1 (11715823_x_at) / RFU IGFBP7 (11715501_s_at) / Fold change /veh IGFBP7 (11715501_s_at) / RFU REEP3 (11722064_at) / Fold change /veh REEP3 (11722064_at) / RFU IGLL1 (11728026_x_at) / Fold change /veh IGLL1 (11728026_x_at): dose or concentration left out as unconfirmed
Settings: ProbeSet 11763895_x_at; LIST B

For Nc1ccc(-c2cccs2)cc1NC(=O)c1ccc2c(c1)cc(C1CC1)n2CCN1CCOCC1 [ACY-1035], which “Fold change vs veh, SNORA58” value is on record?
Its value is 0.89.
